Values joined by “and” are separate entries in the source; they are usually repeats but may differ in a detail not shown here. Identical values can stand only once.
Test system: 817829-284-R-J1-PDC complex spheroid viability
Experiment: Anticancer human tumor 817829-284-R-J1-PDC patient-derived colon adenocarcinoma cell line growth inhibition [POLQ]
Conditions: for viability, T/C: stronger effect = lower value
Description: Multicellular complex tumor spheroid response to Polymerase (POL) inhibitors (novobiocin, ART-558, RP6685) in combination with a variety of drugs and investigational agents in selected tumor cell lines
The POL inhibitors (novobiocin, ART-558, and RP6685) were evaluated both individually and in combination with standard of care and investigational anticancer small molecules within a complex spheroid model of solid tumors. . Complex spheroids include a stromal component modeled by human endothelial cells (HUVEC) and fibroblasts modeled by human mesenchymal stem cells (MSCs). The concentration ranges selected for each drug and investigational agent were based upon clinically achievable concentrations if the clinical Cmax of the agent was known.
Compounds. The drugs and investigational agents: novobiocin (NSC847541), ART-558 (NSC835418), RP-6685 (NSC848927), peposertib (NSC802822), ceralasertib (NSC780249), elimusertib (NSC800525), camonsertib (NSC841442), AZD-1390 (NSC803789), olaparib (NSC753686), talazoparib (NSC767125), rucaparib (NSC756644), sotorasib (NSC818433), MRTX-1133 (NSC836407), SN-38 (NSC673596), topotecan (NSC609699), epotoside (NSC141540), doxorubicin (NSC123127), gemcitabine (NSC613327), 5-fluorouracil (NSC19893), paclitaxel (NSC125973), vemurafenib (NSC761431), MSA-2 (NSC828583), SN-011 (NSC837082), adavosertib (NSC754352), prexasertib (NSC758257), carboplatin (NSC241240) and oxaliplatin (NSC266046), were obtained from the National Cancer Institute (NCI) Developmental Therapeutics Program Chemical Repository (21). The FDA-approved anticancer drug set is available from the Developmental Therapeutics Program at https://dtp.cancer.gov/organization/dscb/obtaining/. […] The stock solutions were prepared in dimethyl sulfoxide (DMSO, Sigma-Aldrich, St. Louis, MO, cat. D2650), except for the platinum compounds which were prepared in saline (Quality Biological, Gaithersburg, MD, cat. 114-055-101), at 800-fold the tested concentration and stored at -70 degrees C prior to their use. All drugs and investigational agents were tested over a range starting from a high concentration at or near the clinical Cmax and decreasing in half-log increments. If the clinical Cmax for an agent had not been determined, the highest concentration tested was 10 microM, except for SN-38, which was tested at a high concentration of 1 microM.
Cell Culture. All cells were maintained in an incubator at 37 degrees C and 5% CO2 with 95% humidity. The PDC lines were cultured according to standard operating procedures established by the NCI PDMR (https://pdmr.cancer.gov). Table 3 of the manuscript, lists the cell lines along with the number of the three cell types plated to form the mct-spheroids and media for tumor cell growth. After thawing, all PDC lines, except 997537-175-T-J1-PDC and 415267-285-R-J2-PDC, were cultured in Matrigel-coated flasks prepared with a working solution of 1X Ham's F-12 nutrient mix, without supplementation (Thermo Fisher Scientific, cat. 11765054), 100 U/mL penicillin-streptomycin (Thermo Fisher Scientific, cat. 15140122), and 2.5% Matrigel (Corning Inc., Corning, NY, cat. 354248) for the first three passages. The two PDC lines 997537-175-T-J1-PDC and 415267-285-R-J2-PDC were cultured on uncoated flasks. The 857933-349-R-J2-PDC line was cultured in 6C/Colon 1B media containing advanced DMEM/F-12 (Thermo Fisher Scientific, cat. 12634028), 10 mM HEPES (Thermo Fisher Scientific, cat. 15630080), 1X GlutaMAX supplement (Thermo Fisher Scientific, cat. 35050061), 0.1 mg/mL primocin (InvivoGen, San Diego, CA, cat. ant-pm-2), 10% defined fetal bovine serum, heat inactivated (HyClone Laboratories Inc., Logan, UT, cat. SH30070.03HI), 50% L-WRN conditioned media (ATCC, cat. CRL-3276), 1.25 mM N-Acetyl-L-cysteine (Sigma-Aldrich, cat. A9165), 10 mM nicotinamide (Sigma-Aldrich, cat. N0636), 1X B-27 supplement (Thermo Fisher Scientific, cat. 17504044), 1X N-2 supplement (Thermo Fisher Scientific, cat. […]

[1] = curve of first compound, second compound 0.0316 µM
[2] = curve of first compound, second compound 0.1 µM
[3] = curve of first compound, second compound 0.316 µM
[4] = curve of first compound, second compound 1 µM
[5] = curve of first compound, second compound 3.16 µM
[6] = curve of first compound, second compound 10 µM
[7] = second compound 0.0316 µM, first compound 0.0316 µM
[8] = second compound 0.0316 µM, first compound 0.1 µM
[9] = second compound 0.1 µM, first compound 0.0316 µM
[10] = second compound 0.1 µM, first compound 0.1 µM
[11] = second compound 0.316 µM, first compound 0.0316 µM
[12] = second compound 0.316 µM, first compound 0.1 µM
[13] = second compound 1 µM, first compound 0.0316 µM
[14] = second compound 1 µM, first compound 0.1 µM
[15] = second compound 3.16 µM, first compound 0.0316 µM
[16] = second compound 3.16 µM, first compound 0.1 µM
[17] = second compound 10 µM, first compound 0.0316 µM
[18] = second compound 10 µM, first compound 0.1 µM
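Note: spheroids exposed to compounds for 7 days.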
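Throughout, for viability, T/C: 100% = DMSO vehicle-treated spheroids.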

Structure (SMILES): Cn1ncnc1[C@H]1c2n[nH]c(=O)c3cc(F)cc(c23)N[C@@H]1c1ccc(F)cc1 + COC1C(OC(N)=O)C(O)C(Oc2ccc3c(O)c(NC(=O)c4ccc(O)c(CC=C(C)C)c4)c(=O)oc3c2C)OC1(C)C
- IC50 [1]: 31 nM
- IC50 [2]: 4.86 nM
- IC50 [3]: 19.8 nM
- IC50 [4]: 24 nM
- IC50 [5]: 10.2 nM
- IC50 [6]: 31 nM
- viability, T/C (second compound 0.0316 µM, first compound 0.000316 µM): 107%
- viability, T/C (second compound 0.0316 µM, first compound 0.001 µM): 63.2%
- viability, T/C (second compound 0.0316 µM, first compound 0.00316 µM): 72.3%
- viability, T/C (second compound 0.0316 µM, first compound 0.01 µM): 62.6%
- viability, T/C [7]: 55.5%
- viability, T/C [8]: 36.5%
- viability, T/C (second compound 0.1 µM, first compound 0.000316 µM): 103%
- viability, T/C (second compound 0.1 µM, first compound 0.001 µM): 109%
- viability, T/C (second compound 0.1 µM, first compound 0.00316 µM): 52.9%
- viability, T/C (second compound 0.1 µM, first compound 0.01 µM): 60.4%
- viability, T/C [9]: 39.9%
- viability, T/C [10]: 35.4%
- viability, T/C (second compound 0.316 µM, first compound 0.000316 µM): 104%
- viability, T/C (second compound 0.316 µM, first compound 0.001 µM): 94.9%
- viability, T/C (second compound 0.316 µM, first compound 0.00316 µM): 74.4%
- viability, T/C (second compound 0.316 µM, first compound 0.01 µM): 65.3%
- viability, T/C [11]: 38%
- viability, T/C [12]: 36.2%
- viability, T/C (second compound 1 µM, first compound 0.000316 µM): 94.9%
- viability, T/C (second compound 1 µM, first compound 0.001 µM): 107%
- viability, T/C (second compound 1 µM, first compound 0.00316 µM): 85.4%
- viability, T/C (second compound 1 µM, first compound 0.01 µM): 65%
- viability, T/C [13]: 47.8%
- viability, T/C [14]: 31.8%
- viability, T/C (second compound 3.16 µM, first compound 0.000316 µM): 86.8%
- viability, T/C (second compound 3.16 µM, first compound 0.001 µM): 102%
- viability, T/C (second compound 3.16 µM, first compound 0.00316 µM): 97.7%
- viability, T/C (second compound 3.16 µM, first compound 0.01 µM): 50.1%
- viability, T/C [15]: 49.9%
- viability, T/C [16]: 40.3%
- viability, T/C (second compound 10 µM, first compound 0.000316 µM): 137%
- viability, T/C (second compound 10 µM, first compound 0.001 µM): 124%
- viability, T/C (second compound 10 µM, first compound 0.00316 µM): 69.8%
- viability, T/C (second compound 10 µM, first compound 0.01 µM): 71.6%
- viability, T/C [17]: 67.2%
- viability, T/C [18]: 22.3%

Structure (SMILES): COc1ccc([C@@H](O)c2cc(-c3ncnc4cc(N5CCOCC5)ccc34)c(F)cc2Cl)nn1 + Nc1ccc(C#CCN(C(=O)Cc2ncc(C(F)(F)F)cc2C(F)(F)F)c2ccc(F)cc2)nn1
- IC50 [1]: 1190 nM
- IC50 [2]: 701 nM
- IC50 [3]: 1190 nM
- IC50 [4]: 925 nM
- IC50 [5]: 1120 nM
- IC50 [6]: 460 nM
- viability, T/C [7]: 109%
- viability, T/C [8]: 85.4%
- viability, T/C (second compound 0.0316 µM, first compound 0.316 µM): 85%
- viability, T/C (second compound 0.0316 µM, first compound 1 µM): 52%
- viability, T/C (second compound 0.0316 µM, first compound 3.16 µM): 28.9%
- viability, T/C (second compound 0.0316 µM, first compound 10 µM): 17.7%
- viability, T/C [9]: 121%
- viability, T/C [10]: 89.8%
- viability, T/C (second compound 0.1 µM, first compound 0.316 µM): 63.5%
- viability, T/C (second compound 0.1 µM, first compound 1 µM): 42.4%
- viability, T/C (second compound 0.1 µM, first compound 3.16 µM): 33.9%
- viability, T/C (second compound 0.1 µM, first compound 10 µM): 23.3%
- viability, T/C [11]: 96.8%
- viability, T/C [12]: 83.2%
- viability, T/C (second compound 0.316 µM, first compound 0.316 µM): 77.9%
- viability, T/C (second compound 0.316 µM, first compound 1 µM): 55.3%
- viability, T/C (second compound 0.316 µM, first compound 3.16 µM): 27.9%
- viability, T/C (second compound 0.316 µM, first compound 10 µM): 20.7%
- viability, T/C [13]: 98.3%
- viability, T/C [14]: 86.8%
- viability, T/C (second compound 1 µM, first compound 0.316 µM): 71.8%
- viability, T/C (second compound 1 µM, first compound 1 µM): 46.5%
- viability, T/C (second compound 1 µM, first compound 3.16 µM): 32.1%
- viability, T/C (second compound 1 µM, first compound 10 µM): 19.1%
- viability, T/C [15]: 103%
- viability, T/C [16]: 86%
- viability, T/C (second compound 3.16 µM, first compound 0.316 µM): 65%
- viability, T/C (second compound 3.16 µM, first compound 1 µM): 55.2%
- viability, T/C (second compound 3.16 µM, first compound 3.16 µM): 34.2%
- viability, T/C (second compound 3.16 µM, first compound 10 µM): 20.9%
- viability, T/C [17]: 106%
- viability, T/C [18]: 74.3%
- viability, T/C (second compound 10 µM, first compound 0.316 µM): 56.5%
- viability, T/C (second compound 10 µM, first compound 1 µM): 39.1%
- viability, T/C (second compound 10 µM, first compound 3.16 µM): 28.5%
- viability, T/C (second compound 10 µM, first compound 10 µM): 16%

Structure (SMILES): COc1cc(C2c3cc4c(cc3C(OC3OC5COC(C)OC5C(O)C3O)C3COC(=O)C23)OCO4)cc(OC)c1O (stereo unspecified)
- viability, T/C (compound 0.0316 µM): 60.4% and 73.7% and 73.4%
- viability, T/C (compound 0.1 µM): 32.3% and 48.6% and 33.4%
- viability, T/C (compound 0.316 µM): 15.3% and 18.4% and 14.9%
- viability, T/C (compound 1 µM): 19.1% and 18.8% and 20.4%
- viability, T/C (compound 3.16 µM): 16.7% and 11.9% and 11.2%
- viability, T/C (compound 10 µM): 6.7% and 6.64% and 6.97%
- IC50 (curve of compound): 47.7 nM and 91.2 nM and 61.7 nM

— PubChem BioAssay AID1963839 (Molecular Pharmacology Branch, DTP, NCI, 2024)
